Measurements: patent US11447466B2, “Substituted indole compounds useful as inhibitors of TLR7/8/9” (BRISTOL-MYERS SQUIBB COMPANY, priority 2017, dated 2022)

What was measured:
Assay type in all cases: cell-based
human TLR7 = target: T1, human TLR7 (Homo sapiens, UniProt Q9NYK1); assay: TLR7 inhibition reporter assay (HEK-Blue SEAP reporter, gardiquimod stimulation); conditions: HEK-Blue cells overexpressing human TLR7, SEAP reporter, gardiquimod 7.5 μM, 22 hour incubation
T1 construct: host or cells: HEK-Blue cells
T1 sequence (Q9NYK1 27-1049): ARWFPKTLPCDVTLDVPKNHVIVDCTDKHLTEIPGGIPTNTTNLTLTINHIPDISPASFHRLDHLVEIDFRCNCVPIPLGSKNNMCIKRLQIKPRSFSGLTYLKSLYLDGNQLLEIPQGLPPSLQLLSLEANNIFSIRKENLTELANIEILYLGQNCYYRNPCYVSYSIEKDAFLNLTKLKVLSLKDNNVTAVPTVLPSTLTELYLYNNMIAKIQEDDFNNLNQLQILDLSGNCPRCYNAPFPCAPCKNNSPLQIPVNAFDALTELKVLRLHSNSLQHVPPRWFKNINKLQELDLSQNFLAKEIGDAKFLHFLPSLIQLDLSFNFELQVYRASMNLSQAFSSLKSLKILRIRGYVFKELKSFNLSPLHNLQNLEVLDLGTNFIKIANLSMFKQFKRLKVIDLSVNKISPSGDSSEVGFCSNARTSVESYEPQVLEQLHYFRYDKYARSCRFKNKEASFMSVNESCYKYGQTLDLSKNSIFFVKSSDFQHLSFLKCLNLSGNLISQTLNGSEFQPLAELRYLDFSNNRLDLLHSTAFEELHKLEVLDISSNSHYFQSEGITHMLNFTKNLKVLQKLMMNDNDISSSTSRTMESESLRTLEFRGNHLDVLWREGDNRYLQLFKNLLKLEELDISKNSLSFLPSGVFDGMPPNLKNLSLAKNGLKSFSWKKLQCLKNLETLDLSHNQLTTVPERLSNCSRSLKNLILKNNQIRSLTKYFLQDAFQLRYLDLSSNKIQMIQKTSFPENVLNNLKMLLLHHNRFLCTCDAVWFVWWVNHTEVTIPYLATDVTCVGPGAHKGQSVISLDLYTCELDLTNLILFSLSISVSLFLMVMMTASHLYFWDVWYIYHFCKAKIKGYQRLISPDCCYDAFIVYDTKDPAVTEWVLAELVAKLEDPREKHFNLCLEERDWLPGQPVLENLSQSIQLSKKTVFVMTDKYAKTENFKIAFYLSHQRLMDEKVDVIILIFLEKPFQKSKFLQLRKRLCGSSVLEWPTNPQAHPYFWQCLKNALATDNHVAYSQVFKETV
How it was run: (§1)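 Compound treatment: 30 min, RT, 0.05 nM–50 μM final. Agonist: TLR7 gardiquimod 7.5 μM; TLR8 R848 15.9 μM; TLR9 ODN2006 5 nM. Incubation 22 h, 37 °C, 5% CO2. Readout SEAP, HEK-Blue Detection.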

human TLR8 = target: T2, human TLR8 (Homo sapiens, UniProt Q9NR97); assay: TLR8 inhibition reporter assay (HEK-Blue SEAP reporter, R848 stimulation); conditions: HEK-Blue cells overexpressing human TLR8, SEAP reporter, R848 15.9 μM, 22 hour incubation
T2 construct: host or cells: HEK-Blue cells
T2 sequence (Q9NR97 27-1041): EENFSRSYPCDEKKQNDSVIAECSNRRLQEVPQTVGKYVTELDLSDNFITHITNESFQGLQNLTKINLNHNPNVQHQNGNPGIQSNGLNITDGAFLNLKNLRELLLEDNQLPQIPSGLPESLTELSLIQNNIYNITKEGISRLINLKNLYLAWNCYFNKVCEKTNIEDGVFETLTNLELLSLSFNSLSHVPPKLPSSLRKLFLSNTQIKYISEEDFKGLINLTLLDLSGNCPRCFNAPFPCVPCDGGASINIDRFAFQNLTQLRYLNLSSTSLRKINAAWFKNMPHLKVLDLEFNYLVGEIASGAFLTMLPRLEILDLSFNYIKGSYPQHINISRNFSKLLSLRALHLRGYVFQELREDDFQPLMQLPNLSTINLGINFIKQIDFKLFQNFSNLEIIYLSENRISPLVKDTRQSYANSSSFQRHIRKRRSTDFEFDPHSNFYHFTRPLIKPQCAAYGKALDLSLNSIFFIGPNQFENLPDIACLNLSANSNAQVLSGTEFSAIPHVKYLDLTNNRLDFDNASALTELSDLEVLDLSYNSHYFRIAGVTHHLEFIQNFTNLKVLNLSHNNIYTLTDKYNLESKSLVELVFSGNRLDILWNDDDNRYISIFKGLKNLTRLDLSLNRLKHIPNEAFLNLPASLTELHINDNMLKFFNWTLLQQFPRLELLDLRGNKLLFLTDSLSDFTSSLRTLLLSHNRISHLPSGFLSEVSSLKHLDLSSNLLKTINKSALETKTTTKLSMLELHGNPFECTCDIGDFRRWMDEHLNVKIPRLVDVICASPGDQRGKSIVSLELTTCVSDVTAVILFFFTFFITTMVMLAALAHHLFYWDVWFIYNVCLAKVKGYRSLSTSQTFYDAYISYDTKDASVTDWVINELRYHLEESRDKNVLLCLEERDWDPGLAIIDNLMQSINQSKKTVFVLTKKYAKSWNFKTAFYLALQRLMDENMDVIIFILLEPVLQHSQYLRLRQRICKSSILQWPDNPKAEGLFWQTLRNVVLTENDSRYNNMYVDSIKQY
How it was run: as §1

human TLR9 = target: T3, human TLR9 (Homo sapiens, UniProt Q9NR96); assay: TLR9 inhibition reporter assay (HEK-Blue SEAP reporter, ODN2006 stimulation); conditions: HEK-Blue cells overexpressing human TLR9, SEAP reporter, ODN2006 5 nM, 22 hour incubation
T3 construct: host or cells: HEK-Blue cells
T3 sequence (Q9NR96 26-1032): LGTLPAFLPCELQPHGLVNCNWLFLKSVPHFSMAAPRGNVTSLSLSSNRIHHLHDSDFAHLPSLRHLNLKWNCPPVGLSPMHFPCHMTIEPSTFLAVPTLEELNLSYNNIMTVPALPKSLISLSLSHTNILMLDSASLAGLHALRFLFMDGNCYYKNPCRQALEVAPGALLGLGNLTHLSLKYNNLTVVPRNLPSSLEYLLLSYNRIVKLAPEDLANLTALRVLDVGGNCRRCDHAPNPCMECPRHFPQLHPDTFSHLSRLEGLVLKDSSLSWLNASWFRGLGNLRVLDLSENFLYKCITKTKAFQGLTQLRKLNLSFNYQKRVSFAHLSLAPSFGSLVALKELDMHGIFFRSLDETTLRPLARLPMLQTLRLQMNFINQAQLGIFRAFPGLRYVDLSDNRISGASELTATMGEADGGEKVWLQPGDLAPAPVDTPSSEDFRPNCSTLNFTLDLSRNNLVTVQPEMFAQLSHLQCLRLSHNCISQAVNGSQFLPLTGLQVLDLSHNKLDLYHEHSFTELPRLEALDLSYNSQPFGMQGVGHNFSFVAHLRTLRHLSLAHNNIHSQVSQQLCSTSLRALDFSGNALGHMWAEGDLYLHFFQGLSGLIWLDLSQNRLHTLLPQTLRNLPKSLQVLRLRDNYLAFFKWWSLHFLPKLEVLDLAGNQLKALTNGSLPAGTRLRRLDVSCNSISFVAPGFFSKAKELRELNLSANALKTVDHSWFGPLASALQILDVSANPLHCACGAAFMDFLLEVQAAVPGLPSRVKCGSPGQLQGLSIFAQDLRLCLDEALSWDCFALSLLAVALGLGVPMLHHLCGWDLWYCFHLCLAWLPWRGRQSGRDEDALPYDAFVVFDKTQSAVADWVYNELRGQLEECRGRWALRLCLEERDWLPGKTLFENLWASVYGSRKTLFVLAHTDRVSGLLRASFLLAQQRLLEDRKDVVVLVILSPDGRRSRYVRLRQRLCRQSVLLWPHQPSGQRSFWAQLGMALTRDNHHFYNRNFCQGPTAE
How it was run: as §1

Compound	IC50 (human TLR7) [nM]	IC50 (human TLR8) [nM]	IC50 (human TLR9) [nM]
CCn1cc(-c2[nH]c3ccc(C4CCNCC4)cc3c2C(C)C)c(C)c(C)c1=O [Example 26, 1-ethyl-5-(3-isopropyl-5-(piperidin-4-yl)-1H-indol-2-yl)-3,4-dimethylpyridin-2(1H)-one]	12	8.9	1860
COc1cc(-c2[nH]c3ccc(C4CCNCC4)cc3c2C(C)C)c(C)n(C)c1=O [Example 28, 5-(3-isopropyl-5-(piperidin-4-yl)-1H-indol-2-yl)-3-methoxy-1,6-dimethylpyridin-2(1H)-one]	207	174	1210
COc1c(C)c(-c2[nH]c3ccc(C4CCNCC4)cc3c2C(C)C)cn(C)c1=O [Example 29, 5-(3-isopropyl-5-(piperidin-4-yl)-1H-indol-2-yl)-3-methoxy-1,4-dimethylpyridin-2(1H)-one]	14.1	50.9	783
Cc1cc(-c2[nH]c3ccc(C4CCNCC4)cc3c2C(C)C)cn(CCO)c1=O [Example 30, 1-(2-hydroxyethyl)-5-(3-isopropyl-5-(piperidin-4-yl)-1H-indol-2-yl)-3-methylpyridin-2(1H)-one]	8.4	10.1	2390
Cc1c(-c2[nH]c3ccc(C4CCNCC4)cc3c2C(C)C)cn(C)c(=O)c1Cl [Example 31, 3-chloro-5-(3-isopropyl-5-(piperidin-4-yl)-1H-indol-2-yl)-1,4-dimethylpyridin-2(1H)-one]	1	7	1120
CCn1cc(-c2[nH]c3ccc(C4CCNCC4)cc3c2C(C)C)cc(Cl)c1=O [Example 32, 3-chloro-1-ethyl-5-(3-isopropyl-5-(piperidin-4-yl)-1H-indol-2-yl) pyridin-2(1H)-one]	1.8	17.2	1070
Cc1c(-c2[nH]c3ccc(C4CCNCC4)cc3c2C(C)C)cc(Cl)c(=O)n1C [Example 33, 3-chloro-5-(3-isopropyl-5-(piperidin-4-yl)-1H-indol-2-yl)-1,6-dimethylpyridin-2(1H)-one]	16.1	12.6	922
Cc1cc(-c2[nH]c3ccc(C4CCNCC4)cc3c2C(C)C)cn(CC2CC2)c1=O [Example 34, 1-(cyclopropylmethyl)-5-(3-isopropyl-5-(piperidin-4-yl)-1H-indol-2-yl)-3-methylpyridin-2(1H)-one]	7.1	48	1460
CCc1cc(-c2[nH]c3ccc(C4CCNCC4)cc3c2C(C)C)c(C)n(CC)c1=O [Example 35, 1,3-diethyl-5-(3-isopropyl-5-(piperidin-4-yl)-1H-indol-2-yl)-6-methylpyridin-2(1H)-one]	60	6.8	574
Cc1cc(-c2[nH]c3ccc(C4CCNCC4)cc3c2C(C)C)cn(CC(C)C)c1=O [Example 36, 1-isobutyl-5-(3-isopropyl-5-(piperidin-4-yl)-1H-indol-2-yl)-3-methylpyridin-2(1H)-one]	9.6	81.2	1310
COC(=O)c1cc(-c2[nH]c3ccc(C4CCNCC4)cc3c2C(C)C)cn(C)c1=O [Example 37, methyl 5-(3-isopropyl-5-(piperidin-4-yl)-1H-indol-2-yl)-1-methyl-2-oxo-1,2-dihydropyridine-3-carboxylate]	458	182	2430
Cc1cc(-c2[nH]c3ccc(C4CCNCC4)cc3c2C(C)C)cn(CCCO)c1=O [Example 38, 1-(3-hydroxypropyl)-5-(3-isopropyl-5-(piperidin-4-yl)-1H-indol-2-yl)-3-methylpyridin-2(1H)-one]	51.2	30.3	3030
COCCn1cc(-c2[nH]c3ccc(C4CCNCC4)cc3c2C(C)C)cc(C)c1=O [Example 39, 5-(3-isopropyl-5-(piperidin-4-yl)-1H-indol-2-yl)-1-(2-methoxyethyl)-3-methylpyridin-2(1H)-one]	7.9	7.9	3180
